For one data set, the system named is AMPK. Description: AMPK Thr172 phosphorylation in C2C12 myotubes (immunoblot). To be noted: for increase in phosphorylation of AMPK (phospho-AMPK to total AMPK, fold over 0-time): 1 hour of exposure, PMI-5011 10 μg/ml, AICAR 0.5 mM, metformin 2 mM. Format: cell-based, murine. The text has this: Results shown are representative of three independent experiments.

The subject of data set [1] is C2C12 myotubes. The following applies: mouse, 10 μg/mL.
Procedure: (§1) C2C12 myotubes were incubated with vehicle control (DMSO) or PMI-5011 (10 μg/mL) for 1, 6, or 16 h as indicated. At each time point, (A) the medium and washes were collected at neutral pH, (B) this was followed by collection of surface bound compounds at acidic pH and cell lysates that were separated into soluble (Lysate) and insoluble fractions (Pellet) for analysis of content by UPLC/MS.
(§2) Murine C2C12 (ATCC; #CRL-1771) or rat L6 myoblasts (ATCC, #CRL-1458) were cultured in DMEM, high glucose (25 mM) with 10% FBS, 2 mM glutamine, and antibiotics (100 units/mL penicillin G and 100 μg/mL streptomycin) in a humidified chamber at 37° C. and 5% CO2. To obtain fully differentiated myotubes, the medium was exchanged for DMEM, high glucose with 2% horse serum, glutamine, and antibiotics when the myoblasts reached confluence. The medium was replaced every 48 hours, and the cells were maintained in this medium until fully differentiated, when the medium was exchanged for DMEM, low glucose (5 mM) with 2% horse serum. The myotubes were fully formed by the fourth day post-induction. The experiments analyzing the impact of each experimental material on insulin signaling in the presence of palmitate-induced insulin resistance were performed as described previously.^31 To determine uptake of bioactives into the myotubes, the cells were treated with PMI-5011 (10 μg/mL) for 0, 1, or 16 h prior to medium collection. At each time point, the cells were thoroughly rinsed with D-Hanks, pH 7.4 at 4° C., followed by incubation with D-Hanks buffer, pH 4.0 at 4° C. for 30 min with gentle rocking to remove surface-bound compounds. Cells were then collected in denaturing buffer containing 50 mM Tris-Cl, pH 7.4 with 150 mM NaCl, 1 mM EDTA, 1% Igepal, 0.5% Na-deoxycholate, 0.1% SDS, protease inhibitors (1 μM PMSF, 10 μg/mL aprotinin, 1 μg/mL pepstatin, 5 μg/mL leupeptin). The harvested cells were sonicated on ice and the supernatant and pellet were collected by centrifugation at 13,400×g for 10 min at 4° C.
(§3) UPLC/MS Analysis of Cell Preparations. […]
The nature of data set [2]: Blood glucose in very high fat diet obese insulin-resistant mice, 6 h after gavage. Format: in vivo, C57BL/6J male mice. To be noted: 6 hour treatment, PMI-5011 500 mg/kg, KOE 500 mg/kg, KOF 100 mg/kg, 2 at 100 or 300 mg/kg, metformin 300 mg/kg.
Procedure: (A) C57BL/6J male mice were fed a 60% kcal fat diet for 16 weeks prior to a 6 h treatment with labrasol (vehicle), metformin, PMI-5011, reconstituted PMI-5011 (RE=KOE+KOF), KOE, KOF, synthetic 2. […] Statistical significance is reported as mean−/+standard deviation, compared to (vehicle) control.
(A) Absolute (mg/dL) and (B) percent change in blood glucose levels from baseline for each treatment group six hours after treatment. […] Statistical significance is reported as mean−/+standard deviation, compared to (vehicle) control; ns, not significant; *p<0.05; ** p<0.01; *** p<0.001.
Glucose Homeostasis. […] To address this, C57BL/6J male mice were fed a very high fat diet (60% kcal fat, VHFD) over 16 weeks to induce obesity, prior to testing the ability of PMI-5011 (500 mg/kg), KOE (500 mg/kg), KOF (100 mg/kg), and purified 2 at 100 or 300 mg/kg body weight to alter blood glucose levels (FIG. 4). Metformin (300 mg/kg) was used as a positive control.
Animal Experiments. Male C57BL/6J mice were obtained from Jackson Laboratories (Bar Harbor, Me.). […] The animals were housed singly with a 12 h light-dark cycle at 24° C. […] Body weight was measured weekly. […]
Blood and Tissue Chemistry. Fasting glucose levels were measured in whole blood using a Breeze2 glucometer (Bayer, Leverkusen, Germany). […]
The test system of another data set is LKB1. Description: LKB1 Ser428 phosphorylation in skeletal muscle of mice. Format: in vivo, C57BL/6J mice. To be noted: gavage; compared to vehicle gavaged mice.
Another data set has as its system SIRT1. Description: SIRT1 protein expression in skeletal muscle of mice. Format: in vivo, C57BL/6J mice. The following applies: gavage.
Data set [3] has as its system C2C12 myotubes. Description: Uptake of bioactives into C2C12 myotubes treated with PMI-5011 (UPLC/MS). To be noted: PMI-5011 10 μg/mL.
Procedure: as §1, §2, §3

Residues, ends and D or L forms follow the SMILES beside them. *: point of attachment. Cbz = O=C(OCc1ccccc1)*

Procedure for LKB1: Tubulin or β-actin are included as a loading control.
Male C57BL/6J mice were obtained from Jackson Laboratories (Bar Harbor, Me., USA). All animal experiments were approved by the Rutgers University Animal Care and Use Committee (Protocol #04-023) and were in compliance with the NIH Guide for the Care and Use of Laboratory. The animals were housed singly with a 12 hour light-dark cycle at 24° C. At 4 weeks of age, the mice were placed on a very high fat diet (60 kcal % fat, D12492, Research Diets) for 16 weeks. Body weight was measured weekly. […] Blood glucose levels were assayed at baseline and each hour thereafter up to 6 hours post gavage. The mice were euthanized and tissues were collected for analysis at 6 hours after gavage.
C2C12 myotube lysates were prepared by sonication in 20 mM Tris pH 7.4, 1% Igepal CA630, 5 mM EDTA with 10 mM Na4P2O7, 100 mM NaF, 2 mM Na3VO4, 1 mM PMSF, 10 μg/ml aprotinin, 1 μg/ml pepstatin, and 5 μg/ml leupeptin. The tissue and cell lysates were centrifuged at 14,000×g for 10 minutes at 4° C. Protein concentrations were determined using BCA assays (Thermo Fisher Scientific, Rockford, Ill., USA) and the resulting supernatants (50 μg) were resolved by 10% SDS-PAGE and subjected to immunoblotting. […] Image J software was used for quantification of the western blot band intensities.
Procedure for SIRT1: Male C57BL/6J mice were obtained from Jackson Laboratories (Bar Harbor, Me., USA). […] The animals were housed singly with a 12 hour light-dark cycle at 24° C. At 4 weeks of age, the mice were placed on a very high fat diet (60 kcal % fat, D12492, Research Diets) for 16 weeks. Body weight was measured weekly. […] Blood glucose levels were assayed at baseline and each hour thereafter up to 6 hours post gavage. The mice were euthanized and tissues were collected for analysis at 6 hours after gavage.
The tissue and cell lysates were centrifuged at 14,000×g for 10 minutes at 4° C. Protein concentrations were determined using BCA assays (Thermo Fisher Scientific, Rockford, Ill., USA) and the resulting supernatants (50 μg) were resolved by 10% SDS-PAGE and subjected to immunoblotting. Nitrocellulose membranes were incubated with antibodies for 1-2 hours at RT or overnight at 4° C. Image J software was used for quantification of the western blot band intensities.

In the case of `NC(=O)c1ncn([C@@H]2O[C@H](COP(=O)(O)O)[C@@H](O)[C@H]2O)c1N` [AICAR, 5-Aminoimidazole-4-carboxamide ribonucleotide], the “increase in phosphorylation of AMPK (phospho-AMPK to total AMPK, fold over 0-time)” value with AMPK is 2.4 fold.
On to `CC(C)C[C@@H](C=O)NC(=O)[C@H](CC(C)C)NC(=O)[C@H](CC(C)C)NC(=O)OCc1ccccc1` [MG132] (Cbz-Leu-Leu-Leu-aldehyde), for which the “AMPK phosphorylation at Thr172 under proteasome inhibition” value with AMPK (MG132 10 μM, up to 4 hours) was “reduced AMPK phosphorylation”.
Consider `COc1ccc(CCC(=O)c2ccc(O)cc2O)cc1` [Compound 2, 2′,4′-dihydroxy-4-methoxydihydrochalcone], for which, in the data set with C2C12 myotubes [1], the “detectability of 2 after 16 hours” value is given as “undetectable after 16 hours”.
On to `CN(C)C(=N)N=C(N)N` [metformin], for which, in data set [2], the blood glucose levels entry is reported as “significantly reduced”. For the same molecule, the “increase in phosphorylation of AMPK (phospho-AMPK to total AMPK, fold over 0-time)” value in the data set on AMPK amounted to 1.4 fold. In addition, in the data set on LKB1, the “phosphorylation of LKB1 Ser428 in skeletal muscle” value is “stimulate LKB1 Ser428 phosphorylation”. For the same molecule, the “protein expression of SIRT1” value in the data set on SIRT1 is recorded as “did not observe an increase”.
Turning to `O=c1cc(Oc2ccc(O)cc2)oc2cc(O)cc(O)c12` [6-demethoxycapillarisin], the “detection in the pellets of treated cells” value with C2C12 myotubes [3] (insoluble fraction) is “not detected”. For the same molecule, the “detection in the samples from treated cells” value with C2C12 myotubes [3] (not quantified) is “detected”.

The record behind these values is patent US20230045522A1, “COMPOSITIONS AND METHODS TO MODULATE GLUCOSE HOMEOSTASIS” (The Board of Supervisors of Louisiana State University and …, priority 2019, published 2023).
